In paper PMC11224556, “Next-generation of BBQ analogues that selectively target breast cancer” (Frontiers in Chemistry, 2024):

Tests used:
Du145 (prostate) cells = system: Du145 (prostate) cells; parameters: method as in Gilbert et al., 2020; settings: MTT, 72 h, ref Gilbert et al., 2020; cited from earlier work
HT29 (colorectal) cells = system: HT29 (colorectal) cells; parameters: method as in Gilbert et al., 2020; settings: HT29, Colon; MTT, 72 h; ref Gilbert et al., 2020; cited from earlier work
T47D breast cancer cells = system: T47D breast cancer cells; parameters: method as in Gilbert et al., 2020; settings: Breast (ER/PR), MTT, 72 h, ref Gilbert et al., 2020; cited from earlier work
[1] = system: broad panel of cancer cell lines and non-cancer breast cell line MCF10A; settings: cited from earlier work
BT20 breast cancer cells = system: BT20 breast cancer cells; parameters: method as in Gilbert et al., 2020; settings: BT20, Breast (TN); MTT, 72 h; ref Gilbert et al., 2020; cited from earlier work
U87 (brain) cells = system: U87 (brain) cells; parameters: method as in Gilbert et al., 2020; settings: U87, Brain (GBM); MTT, 72 h; ref Gilbert et al., 2020; cited from earlier work
[2] = system: SKBR3 breast cancer cells; parameters: method as in Gilbert et al., 2020; settings: SKBR3, Breast (HER2); MTT, 72 h; ref Gilbert et al., 2020; cited from earlier work
MIA (pancreas) cells = system: MIA (pancreas) cells; parameters: method as in Gilbert et al., 2020; settings: MTT, 72 h, ref Gilbert et al., 2020; cited from earlier work
SJ-G2 (brain) cells = system: SJ-G2 (brain) cells; parameters: method as in Gilbert et al., 2020; settings: SJ-G2, Brain (GBM); MTT, 72 h; ref Gilbert et al., 2020; cited from earlier work
[3] = system: ZR-75-1 breast cancer cells; parameters: method as in Gilbert et al., 2020; settings: ZR-75-1, Breast (ER/PR); MTT, 72 h; ref Gilbert et al., 2020; cited from earlier work
AhR mRNA = assay: Gene expression analysis (qPCR) in MDA-MB-468 cells; assay type: cell-based, human; settings: 1 μM and the GI50 value, 6 h
Experimental: (§1) These analogues were specifically chosen because they were synthesised without the production of regioisomers, their structural differences are small while their biological differences are large, c.f. […] Neither analogue altered the expression of SULT1A1 (Figure 4D).
(§2) Gene expression was examined in MDA-MB-468 cells following 6 h treatment. Total RNA was extracted using the RNeasy Mini Kit (Qiagen) according to the manufacturer’s instructions. One µg of RNA was reverse transcribed using the QuanitTect Reverse Transcription Kit (Qiagen) according to the manufacturer’s instructions. Rotor-Gene SYBR Green PCR Kit (Qiagen) was used to perform qPCR on a Rotor-Gene 3,000 Thermo-Cycler Instrument using β2-microglobulin as a housekeeping gene (Qiagen). The primer sequences were purchased from Qiagen as follows: AhR (QT02422938), CYP1A1 (QT00012341), CYP1B1 (QT00209496), SULT1A1 (QT01665489), and β2M (QT00088935). HotStar Taq activation (95 °C for 5 min) was followed by 40 cycles of denaturation (95 °C for 5 s), and annealing/extension (60 °C for 10 s). The comparative Ct value method was used for data analysis. Results are presented as the mean ± standard error of the mean (SEM) of analysis conducted in duplicate and repeated on two separate occasions. Significant test results were determined using T-test analysis at p < 0.01 with a two tail distribution.

CYP1B1 mRNA = assay: as above; assay type: cell-based, human; settings: 1.0 μM, 6 h
Experimental: as §1, §2

CYP1A1 mRNA = assay: as above; assay type: cell-based, human; settings: 6 h
Experimental: as §1, §2

[4] = system: MCF10A normal breast cells; assay: MTT growth inhibition with CYP1 (αNF) or SULT1A1 (quercetin) inhibitor; assay type: cell-based, human; settings: 3 and 5 at 0.1 µM, αNF 10 µM, quercetin 5 µM, 72 h (Supp Figure 1)
Experimental: (§3) This analysis confirms that both CYP1 and SULT1A1, activity is needed to induce the growth inhibitory effect of the BBQ analogue.
(§4) Cells in logarithmic growth were transferred to 96-well plates. Cytotoxicity was determined by plating cells in duplicate in 100 μL medium at a density of 2,500–4,000 cells/well in 96 well plates. On day 0, (24 h after plating) when the cells were in logarithmic growth 100 μL medium with or without the test agent was added to each well. After 72 h drug exposure growth inhibitory effects were evaluated using the MTT (3-[4,5-dimethylthiazol-2-yl]-2,5-diphenyltetrazolium bromide) assay with absorbance read at 540 nm. An eight-point dose response curve was produced, using MS Excel software. From these dose-response curves, the GI50 value was calculated, representing the drug concentration at which cell growth is 50% inhibited based on the difference between the optical density values on day 0 and those at the end of drug exposure ([Bradshaw et al., 2008]; [Zhang et al., 2009]). Each data point was conducted in duplicate and the mean ± S.E.M. calculated from four to five replicates (n = 4 or 5), which were performed on separate occasions and separate cell line passages. Where shown, significant test results were determined using T-test analysis at p < 0.01 and p < 0.05 with a two tail distribution.
(§5) Supp Figure 1. CYP1 and SULT1A1 inhibition ameliorates the effect of 3 and 5. Growth inhibition (72 h, MTT assay) of 3 and 5 (0.1 µM) in the presence of the CYP1 family inhibitor, α-naphthoflavone (αNF, 10 µM) and SULT1A1 inhibitor, quercetin (qu, 5 µM) in (A) MDA-MB-468 breast cancer cells and (B) MCF10A normal breast cells. Significant differences are at the P < 0.01 ** level, using a paired T-test with a two-tailed distribution.

[5] = system: MDA-MB-468 breast cancer cells; assay: MTT growth inhibition with co-administered CYP1 (αNF) or SULT1A1 (quercetin) inhibitor; assay type: cell-based, human; settings: for fold reduction of growth inhibition (GI50 shift): MDA-MB-468
Experimental: as §3
FIGURE 5 CYP1 and SULT1A1 inhibition ameliorates the effect of 5. Growth inhibition (72 h, MTT assay) of 5 in the presence of the (A) CYP1 family inhibitor, α-naphthoflavone (αNF, 10 μM) and (B) SULT1A1 inhibitor, quercetin (5 μM), in MDA-MB-468 breast cancer cells. […] The effect of αNF and quercetin at the single concentration of 10µM and 5 µM respectively is shown in red as a single value.
as §4
as §5, with “Significant differences are at the P < 0.01 ** level, using a paired T-test with a two-tailed distribution.” left out

For `Nc1ccccc1N1C(=O)c2cccc3cccc(c23)C1=O` [Compound 2, 2-(2-aminophenyl)-1H-benzo[de]isoquinoline-1,3(2H)-dione], the GI50 (Du145 (prostate) cells) is given as > 50000 nM, the GI50 (HT29 (colorectal) cells) is given as 32000 ± 2000 nM and the GI50 (T47D breast cancer cells) is given as 180 ± 20 nM. For the same compound, the GI50 ([1]; A431, MCF-7, T47D, ZR-75-1, SKBR3, MDA-MB-468, BT474, ref Gilbert et al., 2020, read-out: GI50 (range over cell lines)) was 100 to 700 nM, the “selective targeting of certain breast cancer cell lines compared with normal breast cells or other tumour types (fold)” value ([1]; ref Gilbert et al., 2017, Gilbert et al., 2020) was “more than 500 fold” and the GI50 (BT20 breast cancer cells) was 14000 ± 1500 nM. For the same compound, the GI50 (U87 (brain) cells) was > 50000 nM, the GI50 [2] was 220 ± 20 nM and the GI50 (MIA (pancreas) cells) was > 50000 nM. For the same compound, the GI50 (SJ-G2 (brain) cells) was > 50000 nM and the GI50 [3] was 120 ± 30 nM.

For `O=c1c2cccc3cccc(c32)c2nc3ccc(Cl)cc3n12` [Compound 3, 10-Chloro-7H-benzo[de]benzo[4,5]imidazo[2,1-a]isoquinolin-7-one], the “selective in targeting certain breast cancer cell lines compared with normal cells or other tumour types (fold)” value ([1]; ref Baker et al., 2021a, Elson et al., 2023) is given as “up to 150 fold”, the “effect on expression of AhR” value (AhR mRNA) is given as “not significantly altered” and the “CYP1B1 Fold change (mRNA vs DMSO control)” value (CYP1B1 mRNA) is given as 3.7 fold. For the same compound, the “CYP1A1 Fold change (mRNA vs DMSO control)” value (shortened to “CYP1A1 Fold change”) (CYP1A1 mRNA; 0.2 μM) was 18 fold, the “CYP1A1 Fold change” value (CYP1A1 mRNA; 1.0 μM) was 20 fold and the “effect on growth in normal MCF10A cells” value [4] was “Neither 3, 5, αNF, or quercetin affected growth”.

For `O=c1c2cccc3cccc(c32)c2nc3ccccc3n12` [Compound 5, 7H-Benzo[de]benzo[4,5]imidazo[2,1-a]isoquinolin-7-one], the “effect on expression of AhR” value (AhR mRNA) was “not significantly altered”, the “CYP1B1 Fold change (mRNA vs DMSO control)” value (CYP1B1 mRNA) was 4.6 fold and the “CYP1A1 Fold change” value (CYP1A1 mRNA; 0.02 μM) was 12 fold. The “CYP1A1 Fold change” value (CYP1A1 mRNA; 1.0 μM) was 15 fold, the GI50 ([5]; Homo sapiens, compound alone (no inhibitor), MDA-MB-468, MTT, 72 h) was 5 nM and the “fold reduction of growth inhibition (GI50 shift)” value ([5]; with quercetin 5 μM vs alone) was 4.6 fold. The “fold reduction of growth inhibition (GI50 shift)” value ([5]; with α-naphthoflavone 10 μM vs alone) was 36 fold and the “effect on growth in normal MCF10A cells” value [4] was “Neither 3, 5, αNF, or quercetin affected growth”.
